Test results taken from patent publication US7780988B2, “Method for making homogeneous spray-dried solid amorphous drug dispersions using pressure nozzles” (Bend Research, Inc., priority 2002, dated 2010).

Tests used:
[1] = Dissolution test of Drug 1 dispersions in PBS (concentration enhancement); format: physicochemical; settings: PBS pH 6.5, 37° C.
Procedure: For this test, samples containing 7.2 mg of the Example 1 dispersion were added to microcentrifuge tubes, in duplicate. The tubes were placed in a 37° C. temperature-controlled chamber, and 1.8 mL PBS at pH 6.5 and having an osmotic pressure of 290 mOsm/kg was added. The samples were mixed using a vortex mixer for about 60 seconds. The samples were centrifuged at 13,000 G at 37° C. for 1 minute. The resulting supernatant solutions were then sampled and diluted 1:6 by volume with methanol and then analyzed by high-performance liquid chromatography (HPLC) at a UV absorbance of 256 nm using a Waters Symmetry C8 column and a mobile phase consisting of 15% (0.2% H3PO4)/85% methanol. The contents of the tubes were mixed on the vortex mixer and allowed to stand undisturbed at 37° C. until the next sample was taken. […] Control 1 and crystalline Drug 1 alone were tested using the same procedure.
The concentrations of drug obtained in these samples were used to determine the value of the maximum concentration of drug in the first ninety minutes (Cmax90) and the area under the curve of drug concentration versus time in the first ninety minutes (AUC90).

[2] = Dissolution test of Drug 2 dispersions (as in Example 1, with exceptions); format: physicochemical; settings: 2000 μg/mL if all of the drug had dissolved, PBS pH 6.5, 37° C.
Procedure: For this test, samples containing 7.2 mg of the Example 1 dispersion were added to microcentrifuge tubes, in duplicate. The tubes were placed in a 37° C. temperature-controlled chamber, and 1.8 mL PBS at pH 6.5 and having an osmotic pressure of 290 mOsm/kg was added. The samples were mixed using a vortex mixer for about 60 seconds. The samples were centrifuged at 13,000 G at 37° C. for 1 minute. The resulting supernatant solutions were then sampled and diluted 1:6 by volume with methanol and then analyzed by high-performance liquid chromatography (HPLC) at a UV absorbance of 256 nm using a Waters Symmetry C8 column and a mobile phase consisting of 15% (0.2% H3PO4)/85% methanol. The contents of the tubes were mixed on the vortex mixer and allowed to stand undisturbed at 37° C. until the next sample was taken. […]
The solubility and physical properties of the dispersions of Example 4 and Control C2 were determined as in Example 1 with the following exceptions. For measurement of concentration enhancement, sufficient quantities of the dispersion were added to the microcentrifuge tubes such that the concentration if all of the drug had dissolved would be 2000 μg/mL. Samples were analyzed by HPLC, with absorbance at 297 nm (Hewlett Packard 1100 HPLC, Zorbax SB C18 column, 35% acetonitrile/65% H2O). The same properties of a control of crystalline Drug 2 (CD2) alone were also determined.

| Compound | AUC90 ([1]; Drug 1, area under the curve of drug concentration versus time in the first ninety minutes) | Cmax90 ([1]; Drug 1, maximum concentration of drug in the first ninety minutes) | Drug 1 Concentration ([1]; 7.2 mg dispersion in 1.8 mL, time 0 min) | AUC ([1]; elapsed time 0 min) | AUC ([1]; elapsed time 4 min) | AUC ([1]; elapsed time 10 min) | AUC ([1]; elapsed time 20 min) | AUC ([1]; elapsed time 40 min) | AUC ([1]; elapsed time 90 min) | AUC ([1]; elapsed time 1200 min) | Drug 1 Concentration ([1]; time 4 min) | Drug 1 Concentration ([1]; time 10 min) | Drug 1 Concentration ([1]; time 20 min) | Drug 1 Concentration ([1]; time 40 min) | Drug 1 Concentration ([1]; time 90 min) | Drug 1 Concentration ([1]; time 1200 min) | AUC90 [2] | Cmax90 [2] |
| --- | --- | --- | --- | --- | --- | --- | --- | --- | --- | --- | --- | --- | --- | --- | --- | --- | --- | --- |
| CCOC(=O)N1c2ccc(C(F)(F)F)cc2C(N(Cc2cc(C(F)(F)F)cc(C(F)(F)F)c2)C(=O)OC)CC1CC (stereo not drawn) [Crystalline Drug 1, 4-[(3,5-bis-trifluoromethyl-benzyl)-methoxycarbonyl-amino]-2-ethyl-6-trifluoromethyl-3,4-dihydro-2H-quinoline-1-carboxylic acid ethyl ester] | <88 µg·min/mL | <1 µg/mL | 0 µg/mL | 0 µg·min/mL | <2 µg·min/mL | <8 µg·min/mL | <18 µg·min/mL | <38 µg·min/mL | <88 µg·min/mL | <1,200 min · μg/mL | <1 µg/mL | <1 µg/mL | <1 µg/mL | <1 µg/mL | <1 µg/mL | <1 µg/mL |  |  |
| O=C(N[C@@H](Cc1ccccc1)[C@@H](O)C(=O)N1C[C@@H](O)[C@@H](O)C1)c1cc2cc(Cl)ccc2[nH]1 [CD2, 5-chloro-1H-indole-2-carboxylic acid [(1S)-benzyl-3-((3R,4S)-dihydroxypyrroldin-1-yl-)-(2R)-hydroxy-3-oxypropyl]amide] |  |  |  |  |  |  |  |  |  |  |  |  |  |  |  |  | 12,800 min · μg/mL | 149 µg/mL |
